From ChEMBL document CHEMBL1128455, “Ribose-modified adenosine analogues as potential partial agonists for the adenosine receptor” (J Med Chem, 1995)
pKi: −log10 of the molar value.

Experiments:
[1] = molecular target: Adenosine receptor A2a (Rattus norvegicus, UniProt P30543); assay: Binding affinity against Adenosine A2A receptor by using [3H]CGS-21680 as radioligand
[2] = species: Rattus norvegicus; assay: GTP shift was determined in rat; format: functional
[3] = molecular target: T1, Adenosine receptor A1 (Rattus norvegicus, UniProt P25099)
T1 sequence (P25099 whole entry): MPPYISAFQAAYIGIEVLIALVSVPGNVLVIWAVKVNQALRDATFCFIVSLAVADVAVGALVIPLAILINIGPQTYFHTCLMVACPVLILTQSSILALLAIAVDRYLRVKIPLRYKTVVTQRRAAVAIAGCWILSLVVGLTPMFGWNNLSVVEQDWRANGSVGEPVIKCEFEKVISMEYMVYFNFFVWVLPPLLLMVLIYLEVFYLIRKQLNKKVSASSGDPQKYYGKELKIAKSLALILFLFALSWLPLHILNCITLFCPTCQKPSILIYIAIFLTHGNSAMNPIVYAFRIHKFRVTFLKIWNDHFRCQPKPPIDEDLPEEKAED
Description: Affinity for the Adenosine A1 receptor in the absence of GTP (A1-GTP) by using [3H]DPCPX as radioligand

[4] = molecular target: T1, Adenosine receptor A1; remark: listed apart in the source
Description: Affinity for the Adenosine A1 receptor in the presence of GTP (A1+GTP) by using [3H]-DPCPX as radioligand

Chain of Adenosine receptor A2a (P30543 whole entry): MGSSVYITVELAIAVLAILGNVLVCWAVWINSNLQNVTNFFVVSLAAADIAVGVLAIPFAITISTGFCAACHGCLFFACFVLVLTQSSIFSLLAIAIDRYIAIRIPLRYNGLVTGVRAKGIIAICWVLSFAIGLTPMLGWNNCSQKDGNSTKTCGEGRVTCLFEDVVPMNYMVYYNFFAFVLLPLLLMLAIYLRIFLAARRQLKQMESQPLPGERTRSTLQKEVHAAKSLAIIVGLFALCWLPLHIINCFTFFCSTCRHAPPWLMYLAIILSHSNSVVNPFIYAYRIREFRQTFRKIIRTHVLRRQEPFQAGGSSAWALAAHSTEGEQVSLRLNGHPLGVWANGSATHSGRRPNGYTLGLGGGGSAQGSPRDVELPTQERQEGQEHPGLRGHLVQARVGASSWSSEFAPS

% radioligand bound [1] | pKi [3] | pKi [4] | pKi [1] | Structure (SMILES) | GTP shift [2]
86% | 5.07 | 4.84 |  | C[C@H](Cc1ccccc1)Nc1ncnc2c1ncn2C1CC(O)C(CO)O1 (stereo partly specified) | 1.7
 | 6.46 | 6.00 | 5.13 | C[C@H](Cc1ccccc1)Nc1ncnc2c1ncn2[C@@H]1O[C@H](CO)C[C@H]1O | 2.9
 |  |  | 6.24 | OC[C@H]1O[C@@H](n2cnc3c(NC4CCCC4)ncnc32)[C@H](O)[C@@H]1O [N6-CYCLOPENTYLADENOSINE] | 
 | 6.52 | 5.97 | 5.44 | C[C@H](Cc1ccccc1)Nc1ncnc2c1ncn2C1O[C@H](C)[C@@H](O)[C@H]1O (stereo partly specified) | 3.6
91% |  |  |  | C[C@@H](Cc1ccccc1)Nc1ncnc2c1ncn2C1CC(O)C(CO)O1 (stereo partly specified) | 
 | 5.74 | 4.92 |  | C[C@H]1O[C@@H](n2cnc3c(N)ncnc32)[C@H](O)[C@@H]1O [5'-Deoxyadenosine] | 6.6
 | 6.96 | 6.33 | 4.73 | OC[C@@H]1C[C@@H](O)[C@H](n2cnc3c(NC4CCCC4)ncnc32)O1 | 4.3
 |  |  |  | Nc1ncnc2c1ncn2[C@@H]1O[C@H](CO)C[C@H]1O [CORDYCEPIN] | 2.1
 | 4.90 | 4.83 | 5.07 | Cn1cnc2c(N)ncnc21 | 1.2
90% | 5.05 | 4.64 |  | OC[C@H]1O[C@@H](n2cnc3c(NC4CCCCC4)ncnc32)C[C@@H]1O | 2.6
 | 6.51 | 5.90 | 4.66 | OC[C@@H]1C[C@@H](O)[C@H](n2cnc3c(NC4CCCCC4)ncnc32)O1 | 4.1
 | 7.15 | 6.35 | 5.00 | C[C@H]1OC(n2cnc3c(NC4CCCC4)ncnc32)[C@H](O)[C@@H]1O (stereo partly specified) | 6.4
 | 5.08 | 4.76 | 4.24 | C[C@@H](Cc1ccccc1)Nc1ncnc2c1ncn2[C@@H]1O[C@H](CO)C[C@H]1O | 2.1
88% | 5.73 | 5.12 |  | OC[C@H]1O[C@@H](n2cnc3c(NC4CCCC4)ncnc32)C[C@@H]1O | 4.1
